Data taken from ChEMBL document CHEMBL3400053, “trans-3,4-Disubstituted pyrrolidines as inhibitors of the human aspartyl protease renin. Part II: prime site exploration using an oxygen linker” (Bioorg Med Chem Lett, 2015).

How the values were obtained:
[1] = biological target: T1, Renin (Homo sapiens, UniProt P00797); test: Inhibition of human recombinant renin by TR-FRET assay
T1 sequence (P00797 whole entry): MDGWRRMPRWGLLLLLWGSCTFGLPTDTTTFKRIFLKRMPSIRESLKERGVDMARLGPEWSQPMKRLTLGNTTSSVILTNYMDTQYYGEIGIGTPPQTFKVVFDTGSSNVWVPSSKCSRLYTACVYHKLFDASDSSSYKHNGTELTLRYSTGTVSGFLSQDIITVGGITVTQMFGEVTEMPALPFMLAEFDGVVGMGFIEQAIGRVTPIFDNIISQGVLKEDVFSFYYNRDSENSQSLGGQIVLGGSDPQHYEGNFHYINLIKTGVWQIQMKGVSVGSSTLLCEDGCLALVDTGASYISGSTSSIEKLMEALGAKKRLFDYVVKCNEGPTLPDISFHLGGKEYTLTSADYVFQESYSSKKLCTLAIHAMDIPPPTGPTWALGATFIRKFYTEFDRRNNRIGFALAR

[2] = tested on: Rattus norvegicus; test: Reduction in mean arterial blood pressure in orally dosed hypertensive telemetered double-transgenic rat overexpressing human renin and angiotensinogen; assay type: functional, organism-based
[3] = biological target: Cytochrome P450 3A4 (Homo sapiens, UniProt P08684); test: Inhibition of CYP3A4 (unknown origin) using 7-benzyl-4-trifluoromethylcoumarin as fluorometric substrate; assay type: ADME
Sequence of Cytochrome P450 3A4 (P08684 whole entry): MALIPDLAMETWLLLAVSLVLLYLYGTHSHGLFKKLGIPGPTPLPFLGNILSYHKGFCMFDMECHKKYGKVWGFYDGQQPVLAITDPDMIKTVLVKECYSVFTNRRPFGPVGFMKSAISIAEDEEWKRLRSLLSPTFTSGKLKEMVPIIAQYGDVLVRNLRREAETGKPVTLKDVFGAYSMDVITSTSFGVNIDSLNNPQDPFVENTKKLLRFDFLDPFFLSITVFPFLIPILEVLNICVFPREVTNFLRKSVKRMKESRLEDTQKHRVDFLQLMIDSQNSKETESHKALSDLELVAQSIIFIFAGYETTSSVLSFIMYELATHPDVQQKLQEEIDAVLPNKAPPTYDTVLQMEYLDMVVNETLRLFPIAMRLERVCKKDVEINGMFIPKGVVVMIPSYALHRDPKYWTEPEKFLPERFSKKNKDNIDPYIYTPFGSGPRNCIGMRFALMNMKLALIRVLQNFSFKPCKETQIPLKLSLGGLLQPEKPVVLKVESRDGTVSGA

[4] = biological target: T1, Renin; test: Inhibition of human recombinant renin in presence of plasma by TR-FRET assay
[5] = Ratio of permeability from basolateral to apical to side over apical to basolateral side in human Caco2 cells; assay type: ADME, cell-based; settings: caco-2

Row | SMILES | IC50 [1] [nM] | other results
1 | COCCCOc1cc(C(=O)N(C[C@@H]2CNC[C@H]2OC(=O)N(C)Cc2ccccc2-n2cccc2)C(C)C)ccc1OC (racemic) | 9 | 
2 | COCCCOc1cc(C(=O)N(C[C@@H]2CNC[C@H]2OC(=O)NCc2ccccc2)C(C)C)ccc1OC |  | inhibition [2]: Dose-dependent effect
3 | COCCCOc1cc(C(=O)N(C[C@@H]2CNC[C@H]2OCc2cccc(-c3ccccc3)c2)C(C)C)ccc1OC (racemic) | 145 | IC50 [3]: ≤ 200 nM; IC50 [4]: 1100 nM
4 | COCCCOc1cc(C(=O)N(C[C@@H]2CNC[C@H]2OC(=O)N(C)Cc2cccc3c2OCO3)C(C)C)ccc1OC (racemic) | 20 | 
5 | COCCCOc1cc(C(=O)N(C[C@@H]2CNC[C@H]2OCc2cccc(Oc3ccccc3)c2)C(C)C)ccc1OC (racemic) | 250 | 
6 | COCCCOc1cc(C(=O)N(C[C@@H]2CNC[C@H]2OC(=O)N(C)Cc2ccccc2)C(C)C)ccc1OC (racemic) | 350 | 
7 | COCCCOc1cc(C(=O)N(C[C@@H]2CNC[C@H]2OCc2cccc(-n3cccc3)c2)C(C)C)ccc1OC (racemic) | 85 | IC50 [3]: ≤ 200 nM
8 | COCCCOc1cc(C(=O)N(C[C@@H]2CNC[C@H]2OCc2cccc(-c3ccccc3OC)c2)C(C)C)ccc1OC (racemic) | 65 | 
9 | COCCCOc1cc(C(=O)N(C[C@@H]2CNC[C@H]2OC(=O)N(C)Cc2ccccc2N2CCCC2)C(C)C)ccc1OC (racemic) | 80 | 
10 | COCCCOc1cc(C(=O)N(C[C@H]2CNC[C@@H]2OC(=O)NCc2ccccc2)C(C)C)ccc1OC | 9200 | 
11 | COCCCOc1cc(C(=O)N(C[C@@H]2CNC[C@H]2OC(=O)N(C)Cc2nc3ccccc3s2)C(C)C)ccc1OC (racemic) | 30 | 
12 | COCCCOc1cc(C(=O)N(C[C@@H]2CNC[C@H]2Oc2ccc(C(F)(F)F)cc2)C(C)C)ccc1OC (racemic) | 450 | 
13 | COCCCOc1cc(C(=O)N(C[C@@H]2CNC[C@H]2OC(=O)NCc2ccccc2)C(C)C)ccc1OC (racemic) | 80 | 
14 | COCCCOc1cc(C(=O)N(C[C@@H]2CNC[C@H]2OCc2cccc3ccccc23)C(C)C)ccc1OC (racemic) | 200 | 
15 | COCCCOc1cc(C(=O)N(C[C@@H]2CNC[C@H]2OC(=O)N2CCCC2)C(C)C)ccc1OC (racemic) | 1150 | 
16 | COCCCOc1cc(C(=O)N(C[C@@H]2CNC[C@H]2OCc2cccc(-c3cccc(OC)c3)c2)C(C)C)ccc1OC (racemic) | 350 | 
17 | COCCCOc1cc(C(=O)N(C[C@@H]2CNC[C@H]2OC(=O)Nc2cccc(OC)c2)C(C)C)ccc1OC (racemic) | 300 | 

Second part, led by results:

Row | IC50 [1] [nM] | SMILES | other results
18 | 90 | COCCCOc1cc(C(=O)N(C[C@@H]2CNC[C@H]2OCc2ccc3ccccc3c2)C(C)C)ccc1OC (racemic) | 
19 | 45 | COCCCOc1cc(C(=O)N(C[C@@H]2CNC[C@H]2OC(=O)N(C)Cc2cccc3ccccc23)C(C)C)ccc1OC (racemic) | IC50 [4]: 35 nM
20 | 3150 | COCCCOc1cc(C(=O)N(C[C@H]2CNC[C@H]2OCc2ccccc2)C(C)C)ccc1OC (racemic) | 
21 | 250 | COCCCOc1cc(C(=O)N(C[C@@H]2CNC[C@H]2OCc2cccc(OC)c2)C(C)C)ccc1OC (racemic) | IC50 [3]: ≤ 200 nM
22 | 550 | CCOc1ccccc1-c1cccc(CO[C@@H]2CNC[C@H]2CN(C(=O)c2ccc(OC)c(OCCCOC)c2)C(C)C)c1 (racemic) | 
23 | 90 | COCCCOc1cc(C(=O)N(C[C@@H]2CNC[C@H]2OC(=O)NCc2ccco2)C(C)C)ccc1OC (racemic) | 
24 | 770 | COCCCOc1cc(C(=O)N(C[C@@H]2CNC[C@H]2OCc2ccccc2)C(C)C)ccc1OC (racemic) | Ratio [5]: 62; IC50 [4]: 850 nM
25 | 100 | COCCCOc1cc(C(=O)N(C[C@@H]2CNC[C@H]2OC(=O)NCc2nccs2)C(C)C)ccc1OC (racemic) | 
26 | 65 | COCCCOc1cc(C(=O)N(C[C@@H]2CNC[C@H]2OCc2cccc(-c3cccc(C)c3)c2)C(C)C)ccc1OC (racemic) | 
